Measurements published in PubChem BioAssay (NCI).
Where “and” joins values, the source holds several entries; their conditions need not be identical. Equal values may be shown once.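 Assay format: 96-well plates, 48-hour exposure. Here, GI50 denotes the concentration required for 50% inhibition of growth. TGI: concentration producing complete growth inhibition.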

Columns and labels:
Experiment in all cases: DTP human tumour cell line panel, 48 h
COLO 205 colon = system: COLO 205 colon
HOP-62 NSCLC = system: HOP-62 NSCLC
NCI/ADR-RES ovarian = system: NCI/ADR-RES ovarian
OVCAR-4 ovarian = system: OVCAR-4 ovarian
PC-3 prostate = system: PC-3 prostate
SF-539 CNS = system: SF-539 CNS
SK-MEL-28 melanoma = system: SK-MEL-28 melanoma
SK-MEL-5 melanoma = system: SK-MEL-5 melanoma
UACC-62 melanoma = system: UACC-62 melanoma
UO-31 renal = system: UO-31 renal

| SMILES | GI50 (COLO 205 colon) | TGI (COLO 205 colon) | GI50 (HOP-62 NSCLC) | TGI (HOP-62 NSCLC) | GI50 (NCI/ADR-RES ovarian) | TGI (NCI/ADR-RES ovarian) | GI50 (OVCAR-4 ovarian) | TGI (OVCAR-4 ovarian) | GI50 (PC-3 prostate) | TGI (PC-3 prostate) | GI50 (SF-539 CNS) | TGI (SF-539 CNS) | TGI (SK-MEL-28 melanoma) | GI50 (SK-MEL-5 melanoma) | TGI (SK-MEL-5 melanoma) | GI50 (UACC-62 melanoma) | TGI (UACC-62 melanoma) | GI50 (UO-31 renal) | TGI (UO-31 renal) | GI50 (SK-MEL-28 melanoma) |
| --- | --- | --- | --- | --- | --- | --- | --- | --- | --- | --- | --- | --- | --- | --- | --- | --- | --- | --- | --- | --- |
| CC1=C/C(O)CC(=O)Cc2nc(co2)C(=O)N2CCC=C2C(=O)OC(C(C)C)C(C)/C=C\C(=O)NC/C=C\1 (stereo unspecified) | 3.09 µM | 15 µM and 38.9 µM | 19.1 µM | > 100 µM | > 100 µM | > 100 µM | 16.1 µM | > 100 µM | 65.4 µM | > 100 µM | 10.9 µM | 46.3 µM and > 100 µM | 44.6 µM and 46.3 µM | 10.3 µM | 29.3 µM and > 100 µM | 20.1 µM | > 57.6 µM and 32.3 µM | 25.7 µM | 91.7 µM |  |
| OCc1ncc(-c2ccccc2)s1 | > 100 µM | > 100 µM | > 100 µM | > 100 µM | > 100 µM | > 100 µM | > 100 µM | > 100 µM | > 100 µM | > 100 µM | > 100 µM | > 100 µM | > 100 µM | > 100 µM | > 100 µM | > 100 µM | > 100 µM | > 100 µM | > 100 µM | > 100 µM |
| COc1ccc(C2CC(c3cccc(OC)c3)=NN2C(=O)c2cc(OC)c(OC)c(OC)c2)cc1 (stereo unspecified) | 1.19 µM | 5.53 µM | > 23.1 µM | > 100 µM | 1.55 µM | > 21.1 µM | 10.8 µM | > 100 µM | 0.882 µM | > 100 µM | 1.62 µM | 5.3 µM | > 100 µM | 0.534 µM | > 40.4 µM | 1.1 µM | > 100 µM | 1.59 µM | > 100 µM | 12.5 µM |
| NC(=S)N/N=C/c1ccc(OC(=O)COc2ccccc2)cn1 | 33.3 µM | > 100 µM | 11.1 µM | 80.8 µM | 4.14 µM | > 100 µM | 3.39 µM | > 100 µM | 5.34 µM | > 100 µM | 2.94 µM | 10.9 µM | > 100 µM | 3.12 µM | 29.1 µM | 4.67 µM | > 100 µM | 3.91 µM | 39.2 µM | 44.4 µM |
| CC(=O)OC1CC2(O)C(CCC3(C)C(c4ccc(=O)oc4)CCC32O)C2(C)CCC(OC3OC(CO)C(O)C(O)C3O)C=C12 (stereo unspecified) | 0.0554 µM | 0.274 µM | 0.0201 µM | 0.144 µM | 0.0172 µM | 0.0541 µM | 0.0273 µM | 0.153 µM | 0.0248 µM | 0.125 µM | 0.0144 µM | 0.0331 µM | 0.231 µM | 0.0196 µM | 0.0672 µM | 0.03 µM | 0.101 µM | 0.0182 µM | 0.0466 µM | 0.049 µM |
| CC(C)C[C@H]1C(=O)N2CCC[C@H]2[C@]2(O)O[C@](NC(=O)[C@@H]3C=C4c5cccc6[nH]c(Br)c(c56)C[C@H]4N(C)C3)(C(C)C)C(=O)N12 |  | 23.5 µM |  | > 100 µM |  | > 100 µM |  | > 100 µM |  | > 100 µM |  | > 100 µM | > 100 µM |  | > 100 µM |  | > 100 µM |  | > 100 µM |  |
| COc1cc2oc(-c3cccc(C(=O)Nc4ccc(C)cc4)c3)cc(=O)c2c(OC)c1OC | 1.05 µM | 2.6 µM | 3.68 µM | 28.3 µM | 1.46 µM | > 100 µM | 2 µM | > 100 µM | 3.49 µM | > 100 µM | 2.58 µM | 10.5 µM | 4.11 µM | 1.03 µM | 2.42 µM | 2.35 µM | 6.42 µM | 3.5 µM | > 100 µM | 1.67 µM |
| C=C(CN(C)Cc1ccccc1)c1ccc(C(=O)Nc2ccccc2N)cc1 | 7.72 µM | 17.6 µM | 3.61 µM | > 50 µM | 1.07 µM | 4.94 µM | 8.28 µM | > 50 µM | 4.95 µM | > 50 µM | 2.02 µM | 12.1 µM | > 50 µM | 6.72 µM | 14.6 µM | 2.16 µM | 18.4 µM | 2.08 µM | 8.41 µM | 7.79 µM |
| CNC(C)[C@H]1CCC2C3CCC4C[C@@H](N(C)C(=O)c5ccccc5)CC[C@]4(C)C3CC[C@@]21C (stereo partly specified) | 1.15 µM | 2.52 µM | 1.43 µM | 3.17 µM | 2.57 µM | 15.5 µM | 1.44 µM | 16.4 µM | 0.969 µM | 3.52 µM | 0.739 µM | 2.01 µM | 2.9 µM | 0.613 µM | 2.02 µM | 1.02 µM | 2.64 µM | 0.794 µM | 2.69 µM | 1.36 µM |
| O=C1c2ccccc2C(=O)c2sc(Nc3ccc(Cl)cc3)nc21 |  | 17.7 µM |  | 9.26 µM | 2.1 µM | 5.52 µM |  | 4.12 µM | 2.49 µM | 10.5 µM |  | 6.33 µM | 3.36 µM |  | 3.6 µM |  | 4.05 µM |  | 6.35 µM |  |
